Source: patent US10273227B2, “C5-anilinoquinazoline compounds and their use in treating cancer” (AstraZeneca AB, priority 2017, dated 2019)

Experiments:
Format in all cases: cell-based
[1] = molecular target: T1, Ba/F3-V654A (KIT exon11 deletion (557-558) and secondary mutation V654A) (Homo sapiens, UniProt P10721, DEL557-558/V654A); test: MTS viability assay, Ba/F3 expressing KIT exon11 deletion (557-558) and V654A; settings: 72 h incubation, top concentration 10 uM
T1 construct: expressed in transfected cells; host or cells: Ba/F3 cells, lentiviral transduction (pLVX-IRES Puro)
T1 sequence (P10721 with tags, fused parts or gaps DEL557-558/V654A): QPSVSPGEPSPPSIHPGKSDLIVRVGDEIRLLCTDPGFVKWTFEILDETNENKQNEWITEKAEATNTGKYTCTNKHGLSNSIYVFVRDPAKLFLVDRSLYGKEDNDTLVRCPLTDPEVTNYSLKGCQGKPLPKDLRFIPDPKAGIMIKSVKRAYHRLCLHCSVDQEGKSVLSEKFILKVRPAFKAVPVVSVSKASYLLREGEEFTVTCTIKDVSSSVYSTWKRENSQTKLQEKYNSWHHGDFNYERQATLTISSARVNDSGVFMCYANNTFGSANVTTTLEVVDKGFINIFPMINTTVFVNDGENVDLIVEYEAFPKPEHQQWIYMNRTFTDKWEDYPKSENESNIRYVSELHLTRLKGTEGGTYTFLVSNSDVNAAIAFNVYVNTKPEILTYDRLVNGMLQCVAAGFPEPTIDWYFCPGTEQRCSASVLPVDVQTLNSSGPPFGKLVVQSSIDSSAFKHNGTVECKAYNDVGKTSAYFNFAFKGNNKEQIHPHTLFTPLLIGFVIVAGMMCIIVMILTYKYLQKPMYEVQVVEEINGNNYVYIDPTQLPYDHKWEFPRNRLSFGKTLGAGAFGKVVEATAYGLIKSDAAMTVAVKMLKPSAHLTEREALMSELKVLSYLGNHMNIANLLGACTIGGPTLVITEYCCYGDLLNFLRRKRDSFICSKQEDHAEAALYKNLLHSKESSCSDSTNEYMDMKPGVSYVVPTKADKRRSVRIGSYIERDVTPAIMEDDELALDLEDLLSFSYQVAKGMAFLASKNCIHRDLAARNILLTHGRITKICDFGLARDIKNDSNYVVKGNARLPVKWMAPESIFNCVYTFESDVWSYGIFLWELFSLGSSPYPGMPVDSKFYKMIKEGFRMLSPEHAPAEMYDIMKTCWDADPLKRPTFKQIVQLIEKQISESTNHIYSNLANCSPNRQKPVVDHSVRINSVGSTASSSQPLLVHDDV
Procedure: (§1) Exponentially grown Ba/F3 cells (1.5×10^6 cells in 2 ml medium) were infected with 2 ml of viral suspension in a 6-well plate in the presence of mIL-3 (10 ng/ml) and polybrene (4 μg/ml) (Sigma Aldrich, St. Louis, Mo.) and incubated for 24 h. After 24 h, the cells were centrifuged and the viral supernatant was discarded. The cells were then re-suspended in fresh medium and allowed to recover for another day. The following day, the cells were seeded in complete medium without murine IL-3. After a week or two, when cells started proliferating, a selection was carried out by gradually increasing the puromycin concentration to 0.5 ug/ml. Once the cells were growing exponentially in puromycin, batches of cells were frozen down for banking.
(§2) The impact of KIT inhibitors on the viability of Ba/F3 expressing KIT mutations was determined using an MTS assay, which is a colorimetric sensitive quantification of viable cells in proliferation and cytotoxicity assay. In the MTS assay […] in the presence of phenazine methosulfate (PMS) was used. The mitochondrial reductase forms a formazan which absorbs at 490 nm. Cells in exponential growth phase were added to 384-well plates containing pre-dispensed compounds (top concentration 10 uM, 10-point curve). The cells were incubated for 72 h at 37° C. and 5% CO2. After 72 h, MTS reagent was added to the plates and incubated an additional 2 h at 37° C. before measuring the absorbance at 490 nm on a Tecan microplate reader using Magellan Software (Tecan Trading AG, Switzerland).
(§3) The absorbances were normalized as follows: (Read-Day0 control)/(Day3 control−Day0 control)*100. The GI50 values were generated using Genedata Screener software (Genedata Lexington, Mass.). A non-linear regression with constraints for top and bottom between 100 and −100 and no constraint on the Hill coefficient was used to generate GI50 values. The GI50 values reported below are the calculated mean result of at least 3 biological replicates across all the cell lines tested.

[2] = tested on: Ba/F3-Parental; test: MTS viability assay, Ba/F3 parental cells; settings: Mus musculus, BaF3, 72 h incubation, top concentration 10 uM
Procedure: as §1, §2, §3

[3] = molecular target: T2, Ba/F3-T670I (KIT exon11 deletion (557-558) and secondary mutation T670I) (Homo sapiens, UniProt P10721, DEL557-558/T670I); test: MTS viability assay, Ba/F3 expressing KIT exon11 deletion (557-558) and T670I; settings: 72 h incubation, top concentration 10 uM
T2 construct: expressed in transfected cells; host or cells: Ba/F3 cells, lentiviral transduction (pLVX-IRES Puro)
T2 sequence (P10721 with tags, fused parts or gaps DEL557-558/T670I): as the sequence (P10721 with tags, fused parts or gaps DEL557-558/V654A) above, with A627V, T643I counted along it
Procedure: as §1, §2, §3

[4] = tested on: TEL-KDR (KDR (K790-V1356) fused to the C-terminus of Tel); test: MTS viability assay, Ba/F3 expressing Tel-KDR; settings: 72 h incubation, top concentration 10 uM
Procedure: Tel-KDR myc was cloned into pBCS2004, a retroviral vector, wherein KDR (K790-V1356) is fused to the C-terminus of Tel. Retroviral particles were generated in HEK293T cells. The Tel-KDR plasmid was co-transfected with helper viruses (gag-Pol and VSV-G) into HEK293T cells using calcium phosphate and the virus was harvested 72 h after transfection.
as §1, §2, §3

[5] = molecular target: T3, Ba/F3-D816H (KIT exon11 deletion (557-558) and secondary mutation D816H) (Homo sapiens, UniProt P10721, D816H/DEL557-558); test: MTS viability assay, Ba/F3 expressing KIT exon11 deletion (557-558) and D816H; settings: 72 h incubation, top concentration 10 uM
T3 construct: expressed in transfected cells; host or cells: Ba/F3 cells, lentiviral transduction (pLVX-IRES Puro)
T3 sequence (P10721 with tags, fused parts or gaps DEL557-558/D816H): as the sequence (P10721 with tags, fused parts or gaps DEL557-558/V654A) above, with A627V, D789H counted along it
Procedure: as §1, §2, §3

| GI50 [4] [nM] | Structure (SMILES) | Ba/F3-V654A GI50 [1] [nM] | GI50 [2] [nM] | Ba/F3-T670I GI50 [3] [nM] | Ba/F3-D816H GI50 [5] [nM] |
| --- | --- | --- | --- | --- | --- |
| ≥ 10000 | COc1cc(OC)c2c(Nc3ccc(NC(=O)Cn4cc(C(C)C)nn4)cc3F)ncnc2c1 [Example 1, N-(4-[(5,7-dimethoxyquinazolin-4-yl)amino]-3-fluorophenyl)-2-[4-(propan-2-yl)-1H-1,2,3-triazol-1-yl]acetamide] | 7 | ≥ 10000 | 162 | 141 |
| 2500 | COc1cc2ncnc(Nc3ccc(NC(=O)Cn4cc(C(C)C)nn4)cc3)c2c(F)c1OC [Example 2, N-{4-[(5-fluoro-6,7-dimethoxyquinazolin-4-yl)amino]phenyl}-2-[4-(propan-2-yl)-1H-1,2,3-triazol-1-yl]acetamide] | 4 | ≥ 10000 | 49 | 22 |
| 6180 | CCOc1cc(OC2CCOCC2)cc2ncnc(Nc3ccc(NC(=O)Cn4cc(C(C)C)nn4)cc3)c12 [Example 5, N-(4-((5-Ethoxy-7-((tetrahydro-2H-pyran-4-yl)oxy)quinazolin-4-yl)amino)phenyl)-2-(4-isopropyl-1H-1,2,3-triazol-1-yl)acetamide] | 41 | 1870 | 591 | 138 |
| 2660 | CCOc1cc(OCCN(C)C)cc2ncnc(Nc3ccc(NC(=O)Cn4cc(C(C)C)nn4)cc3)c12 [Example 6, N-(4-((7-(2-(Dimethylamino)ethoxy)-5-ethoxyquinazolin-4-yl)amino)phenyl)-2-(4-isopropyl-1H-1,2,3-triazol-1-yl)acetamide] | 13 | 2050 | 91 | 63 |
| 3190 | CCOc1cc(OC)cc2ncnc(Nc3ccc(NC(=O)Cn4cc(C(C)C)nn4)cc3)c12 [Example 7, N-(4-((5-Ethoxy-7-methoxyquinazolin-4-yl)amino)phenyl)-2-(4-isopropyl-1H-1,2,3-triazol-1-yl)acetamide] | 7 | ≥ 10000 | 73 | 79 |
| 2150 | CCOc1cc(OCCOC)cc2ncnc(Nc3ccc(NC(=O)Cn4cc(C(C)C)nn4)cc3)c12 [Example 8, N-(4-((5-Ethoxy-7-(2-methoxyethoxy)quinazolin-4-yl)amino)phenyl)-2-(4-isopropyl-1H-1,2,3-triazol-1-yl)acetamide] | 15 | 2550 | 32 | 44 |
| 2330 | CCOc1cc(OC2COC2)cc2ncnc(Nc3ccc(NC(=O)Cn4cc(C(C)C)nn4)cc3)c12 [Example 9, N-(4-((5-Ethoxy-7-(oxetan-3-yloxy)quinazolin-4-yl)amino)phenyl)-2-(4-isopropyl-1H-1,2,3-triazol-1-yl)acetamide] | 12 | 1710 | 127 | 105 |
| 9480 | COc1cc(OC2CCOCC2)cc2ncnc(Nc3ccc(NC(=O)Cn4cc(C(C)C)nn4)cc3)c12 [Example 10, N-(4-{[5-Methoxy-7-(tetrahydro-2H-pyran-4-yloxy)quinazolin-4-yl]amino}phenyl)-2-[4-(propan-2-yl)-1H-1,2,3-triazol-1-yl]acetamide] | 7 | ≥ 10000 | 640 | 65 |
| 2480 | COc1cc2ncnc(Nc3ccc(NC(=O)Cn4cc(C(C)C)nn4)cc3)c2c(OC)c1OC [Example 11, 2-[4-(Propan-2-yl)-1H-1,2,3-triazol-1-yl]-N-{4-[(5,6,7-trimethoxyquinazolin-4-yl)amino]phenyl}acetamide] | 4 | ≥ 10000 | 36 | 27 |
| 1300 | COCCOc1cc(F)c2c(Nc3ccc(NC(=O)Cn4cc(C(C)C)nn4)cc3)ncnc2c1 [Example 12, N-(4-{[5-Fluoro-7-(2-methoxyethoxy)quinazolin-4-yl]amino}phenyl)-2-[4-(propan-2-yl)-1H-1,2,3-triazol-1-yl]acetamide] | 2 | ≥ 10000 | 15 | 7 |
| 4180 | COc1cc(OC(C)C)cc2ncnc(Nc3ccc(NC(=O)Cn4cc(C(C)C)nn4)cc3)c12 [Example 15, N-(4-{[5-Methoxy-7-(propan-2-yloxy)quinazolin-4-yl]amino}phenyl)-2-[4-(propan-2-yl)-1H-1,2,3-triazol-1-yl]acetamide] | 11 | ≥ 10000 | 254 | 35 |
| 9360 | COc1cc(OC2COC2)cc2ncnc(Nc3ccc(NC(=O)Cn4cc(C(C)C)nn4)cc3)c12 [Example 16, N-(4-{[5-Methoxy-7-(oxetan-3-yloxy)quinazolin-4-yl]amino}phenyl)-2-[4-(propan-2-yl)-1H-1,2,3-triazol-1-yl]acetamide] | 12 | ≥ 10000 | 502 | 90 |
| ≥ 10000 | COc1cc(OCCN(C)C)cc2ncnc(Nc3ccc(NC(=O)Cn4cc(C(C)C)nn4)cc3)c12 [Example 17, N-[4-({7-[2-(Dimethylamino)ethoxy]-5-methoxyquinazolin-4-yl}amino)phenyl]-2-[4-(propan-2-yl)-1H-1,2,3-triazol-1-yl]acetamide] | 20 | ≥ 10000 | 627 | 88 |
| 6010 | CCOc1cc(OC)c2c(Nc3ccc(NC(=O)Cn4cc(C(C)C)nn4)cc3)ncnc2c1 [Example 18, N-{4-[(7-Ethoxy-5-methoxyquinazolin-4-yl)amino]phenyl}-2-[4-(propan-2-yl)-1H-1,2,3-triazol-1-yl]acetamide] | 3 | ≥ 10000 | 66 | 21 |
| ≥ 10000 | CCOc1cc(OCC)c2c(Nc3ccc(NC(=O)Cn4cc(C(C)C)nn4)cc3)ncnc2c1 [Example 19, N-{4-[(5,7-Diethoxyquinazolin-4-yl)amino]phenyl}-2-[4-(propan-2-yl)-1H-1,2,3-triazol-1-yl]acetamide] | 7 | ≥ 10000 | 34 | 56 |
| 3390 | COCCOc1cc(OC)c2c(Nc3ccc(NC(=O)Cn4cc(C(C)C)nn4)cc3)ncnc2c1 [Example 20, N-(4-{[5-Methoxy-7-(2-methoxyethoxy)quinazolin-4-yl]amino}phenyl)-2-[4-(propan-2-yl)-1H-1,2,3-triazol-1-yl]acetamide] | 8 | 9960 | 53 | 30 |
| ≥ 10000 | COc1cc(F)c2c(Nc3ccc(NC(=O)Cn4cc(C(C)C)nn4)cc3)ncnc2c1 [Example 21, N-{4-[(5-Fluoro-7-methoxyquinazolin-4-yl)amino]phenyl}-2-[4-(propan-2-yl)-1H-1,2,3-triazol-1-yl]acetamide] | 2 | ≥ 10000 | 68 | 25 |
| 5350 | COc1cc(OC)c2c(Nc3ccc(NC(=O)Cn4cc(C(C)C)nn4)cc3)ncnc2c1 [Example 22, N-{4-[(5,7-Dimethoxyquinazolin-4-yl)amino]phenyl}-2-[4-(propan-2-yl)-1H-1,2,3-triazol-1-yl]acetamide] | 3 | ≥ 10000 | 106 | 48 |
